“Also recorded” adds a separate entry of the source.
Key:
[1] = tested on: white matter hyperintensities (microvascular pathology); assay: Phase 3 clinical trials of LMTM in AD: MRI total lesion volume (TLV) of white matter hyperintensities; format: in vivo, human; conditions: for exposure dependence of rate of progression of microvascular pathology: low dose monotherapy, FIG. 6, TLV change from baseline; for estimate: difference in increase in TLV, LMTM monotherapy vs LMTM in combination with AD symptomatic treatments: FIGS. 7A and B, no unit printed at the table; for estimate: difference in increase in Total Lesion volume (TLV), LMTM monotherapy vs LMTM in combination with symptomatic treatments for AD: AD patients, MRI
Description: The design and results from two large Phase 3, double-blind, controlled, randomised clinical trials of hydromethylthionine in probable AD were described elsewhere. Study TRx-237-015 (clintrials.gov NCT01689246), involved 890 mild/moderate AD patients and study TRx-237-005 (clintrials.gov NCT01689233), had 800 patients with mild AD meeting NIA/AA diagnostic criteria for probable AD. Eligible patients were aged less than 90 years. Patients were excluded if they had: a recent history of poorly controlled hypertension, or clinically significant cardiovascular disease (such as hospitalization for acute coronary syndrome or symptoms consistent with angina pectoris), or a modified Hachinski ischemic score of >4. Patients were also excluded if significant vascular pathology was seen on brain MRI, including large confluent white matter hyperintensities that would lead to a diagnosis other than probable AD. A detailed list of all inclusion and exclusion criteria for both trials is available in the supplementary materials. FDG-PET was performed at baseline in only a subgroup of TRx-237-015 subjects (n=198) but was required for all participants in TRx-237-005 if the appropriate imaging facilities were available at the study site. Of 1690 participants enrolled in both studies, 794 had available FDG-PET scans at baseline.
In this trial only GE, Siemens, or Philips (1.5-Tesla and 3.0-Tesla) machines were used to reduce the variability in the imaging data. The MRI sequences utilised in this protocol were based on the ADNI protocol. The recommended range of acquisition parameters for individual sequences for GE, Siemens, and Philips MRI machines were developed after technical evaluation forms from all sites. The following sequences were included: FLAIR: This sequence allows assessment of other clinically significant focal intracranial pathology and for detection and quantification of WMHs; Unenhanced T1-weighted, 3-dimensional sequence (e.g., MP RAGE or SPGR) were used for evaluation of the whole brain, ventricular and hippocampal volumes and WMH.
Brain MRI derived WMHs were quantified using the Lesion Growth Algorithm (LGA) part of the Lesion Segmentation Toolbox (LST [28]) which is an automated method for extracting WMH and has been validated in various datasets. This algorithm uses T1 and FLAIR MR images to classify voxels, with T1 images used to segment tissue classes white matter (WM), grey matter (GM), cerebrospinal fluid (CSF) and fluid attenuated inversion recovery (FLAIR) imaging used to determine areas of hyperintense signal (i.e., WMH). WMH data are provided as whole-brain total lesion volume (TLV), measured in cm^3.
Exposure dependence groups were defined in accordance with the methods described in more detail in WO2020/020751 discussed hereinbefore.

tau aggregation = tau aggregation (Homo sapiens, UniProt P10636); conditions: in vitro (LMTM: in vitro and in vivo); cited from earlier work
[2] = cited from earlier work
[3] = compared with the MT+ form; cited from earlier work
Alzheimer's disease = conditions: monotherapy vs combination with AChEIs and/or memantine; cited from earlier work
[4] = tested on: PHFs from Alzheimer's disease brain tissue; conditions: cited from earlier work
tau pathology = conditions: transgenic mouse tau models; brain concentrations consistent with human oral dosing; cited from earlier work

Chain of tau aggregation (P10636 whole entry): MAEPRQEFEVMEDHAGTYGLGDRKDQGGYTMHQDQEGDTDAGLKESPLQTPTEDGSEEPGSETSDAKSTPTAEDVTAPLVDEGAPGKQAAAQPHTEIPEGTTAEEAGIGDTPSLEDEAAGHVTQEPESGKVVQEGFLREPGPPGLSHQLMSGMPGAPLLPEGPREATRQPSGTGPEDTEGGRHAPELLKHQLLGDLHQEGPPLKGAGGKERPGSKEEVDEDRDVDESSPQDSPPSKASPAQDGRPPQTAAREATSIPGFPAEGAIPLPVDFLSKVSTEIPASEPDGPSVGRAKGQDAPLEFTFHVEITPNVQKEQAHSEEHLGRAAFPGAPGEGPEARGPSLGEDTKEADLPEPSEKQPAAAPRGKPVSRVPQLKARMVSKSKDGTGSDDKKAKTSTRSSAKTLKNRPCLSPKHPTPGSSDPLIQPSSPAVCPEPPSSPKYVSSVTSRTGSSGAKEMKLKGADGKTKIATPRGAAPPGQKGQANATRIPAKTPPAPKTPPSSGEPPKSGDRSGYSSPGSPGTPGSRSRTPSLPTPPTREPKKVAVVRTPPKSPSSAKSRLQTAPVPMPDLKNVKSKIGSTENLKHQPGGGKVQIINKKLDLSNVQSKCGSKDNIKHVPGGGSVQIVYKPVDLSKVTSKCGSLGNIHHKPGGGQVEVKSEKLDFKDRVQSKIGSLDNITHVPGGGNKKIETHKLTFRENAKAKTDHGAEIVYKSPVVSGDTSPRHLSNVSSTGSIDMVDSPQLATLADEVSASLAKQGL

SMILES	exposure dependence of rate of progression of microvascular pathology [1]	estimate: difference in increase in TLV, LMTM monotherapy vs LMTM in combination with AD symptomatic treatments ([1]; 4 mg b.i.d. (low dose group))	estimate: difference in increase in Total Lesion volume (TLV), LMTM monotherapy vs LMTM in combination with symptomatic treatments for AD ([1]; 4 mg b.i.d. (low dose)) [mL]	estimate: difference in increase in Total Lesion volume (TLV), LMTM monotherapy vs LMTM in combination with symptomatic treatments for AD ([1]; 100 mg b.i.d. (high dose)) [mL]	estimate: difference in increase in TLV, LMTM monotherapy vs LMTM in combination with AD symptomatic treatments ([1]; 100 mg b.i.d., high dose (mean of high doses, 150-250 mg/day))	increase in Total Lesion volume, monotherapy vs combination with symptomatic treatments for AD ([1]; high dose and low dose groups, statistically significant difference)	tau aggregation inhibitor activity (tau aggregation)	pharmaceutic properties: solubility and pKa [2]	absorption [3]	treatment benefit in AD according to the trial criteria (Alzheimer's disease)	dissolution of PHFs [4]	tau pathology and behavioural deficits (tau pathology)
CN(C)c1ccc2c(c1)Sc1cc(N(C)C)ccc1N2 [LMT, N3,N3,N7,N7-tetramethyl-10H-phenothiazine-3,7-diamine]	exposure-dependent reduction in progression of microvascular pathology	–	–	–	–	–	–	–	–	–	–	–
CN(C)c1ccc2c(c1)Sc1cc(N(C)C)ccc1N2.CS(=O)(=O)O.CS(=O)(=O)O [LMTM, N,N,N′,N′-tetramethyl-10H-phenothiazine-3,7-diaminium bis(hydromethanesulfonate)]	exposure-dependent difference in rate of progression of microvascular pathology	−0.3494	-0.3494	-0.3865	−0.3865	less increase in Total Lesion volume; also recorded: less increase in TLV	retains TAI activity in vitro and in vivo	superior pharmaceutic properties in terms of solubility and pKa	not subject to the absorption limitations of the MT^+ form	restricted to patients taking LMTM as monotherapy	–	–
CN(C)c1ccc2nc3ccc(=[N+](C)C)cc-3sc2c1 [MT, Methylthioninium]	–	–	–	–	–	–	acts as a tau aggregation inhibitor in vitro	–	–	–	dissolves PHFs from Alzheimer's disease brain tissue	reduces tau pathology and associated behavioural deficits
